Structures can show the parent of a compound that is named as a salt.
- melting point: 140 °C
SMILES: NC(CS)CN1CCN(C(=O)c2cccc3ccccc23)Cc2ccccc21 (racemic) (as salt: hydrochloride) [Example 1, (+,−)-1-(2-Amino-3-mercaptopropyl)-2,3,4,5-tetrahydro-4-(naphthalenylcarbonyl)-1H-1,4-benzodiazepine, Monohydrochloride]

Source: patent publication US6458783B1, “Non-imidazole benzodiazepine inhibitors of farnesyl protein transferase” (Bristol-Myers Squibb Company, priority 1997, dated 2002)
